This note sets out measurements from patent publication US4512992A, “Treatment with dialkoxy pyridopyrimidine compounds” (Burroughs Wellcome Co., priority 1981, dated 1985).

The target of assay [1] is T1, mammalian dihydrofolate reductase (DHFR) (Rattus norvegicus, UniProt Q920D2).
T1 construct: DHFR partially purified from rat liver; from tissue; host or cells: rat liver
T1 sequence (Q920D2 1-187): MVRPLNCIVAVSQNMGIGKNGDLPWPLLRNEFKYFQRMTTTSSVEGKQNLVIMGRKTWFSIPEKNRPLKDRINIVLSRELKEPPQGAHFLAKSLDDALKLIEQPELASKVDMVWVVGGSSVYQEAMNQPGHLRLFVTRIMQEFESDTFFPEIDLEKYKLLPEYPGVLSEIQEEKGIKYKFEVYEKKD
Briefly: Inhibition of mammalian dihydrofolate reductase (DHFR) partially purified from rat liver. It counts as biochemical. As for the experimental part: Inhibition of Mammalian Dihydrofolate Reductase (DHFR) by […]-5-methyl-6-benzylpyrido(2,3-d)pyrimidines
The inhibitory effect of the test compounds against DHFR partially purified from rat liver was determined. An IC50 of 5×10^-8 M or less is considered significant potency, an IC50 of 1×10^-8 M or less being particularly significant potency.

Assay [2] deals with Histamine N-Methyltransferase (HMT) (Homo sapiens, UniProt P50135). Briefly: Inhibition of histamine N-methyltransferase (HMT). In kind it is biochemical. As for the experimental part:
Inhibition of Histamine N-Methyltransferase
The effect of the test compounds used in Example 2 against HMT was determined. An inhibition of less than 20% was considered acceptable.

Chain of Histamine N-Methyltransferase (HMT) (P50135 whole entry, species assumed): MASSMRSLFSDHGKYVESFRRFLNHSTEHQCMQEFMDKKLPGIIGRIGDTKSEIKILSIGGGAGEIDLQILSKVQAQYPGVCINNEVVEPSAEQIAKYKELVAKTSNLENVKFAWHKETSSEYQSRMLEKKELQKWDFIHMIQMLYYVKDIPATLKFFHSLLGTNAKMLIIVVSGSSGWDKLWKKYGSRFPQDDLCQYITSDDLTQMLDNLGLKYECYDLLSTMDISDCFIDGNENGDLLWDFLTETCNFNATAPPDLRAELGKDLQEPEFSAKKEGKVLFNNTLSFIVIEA

With `COc1ccc(Cc2cnc3nc(N)nc(N)c3c2C)cc1OC` [2,4-Diamino-6-(3,4-dimethoxybenzyl)-5-methylpyrido[2,3-d]pyrimidine], the “inhibitor of mammalian DHFR (in words)” value in assay [1] is “very potent inhibitor of mammalian DHFR”. Besides, the “inhibitory activity against HMT (in words)” value in assay [2] is “acceptably low inhibitory activity against HMT”.
